The values below come from article PMC3894963, “Expression and Functional Characterization of Membrane-Integrated Mammalian Corticotropin Releasing Factor Receptors 1 and 2 in Escherichia coli” (PLoS ONE, 2014).

Assay [1] has as its target T1, hCRFR1α (Homo sapiens, UniProt P34998).
T1 construct: The cDNAs encoding full-length mature forms of hCRFR1α and mCRFR2β were introduced into pET-26b plasmid; made in house; host or cells: E. coli (membrane fraction)
T1 sequence (P34998 24-415): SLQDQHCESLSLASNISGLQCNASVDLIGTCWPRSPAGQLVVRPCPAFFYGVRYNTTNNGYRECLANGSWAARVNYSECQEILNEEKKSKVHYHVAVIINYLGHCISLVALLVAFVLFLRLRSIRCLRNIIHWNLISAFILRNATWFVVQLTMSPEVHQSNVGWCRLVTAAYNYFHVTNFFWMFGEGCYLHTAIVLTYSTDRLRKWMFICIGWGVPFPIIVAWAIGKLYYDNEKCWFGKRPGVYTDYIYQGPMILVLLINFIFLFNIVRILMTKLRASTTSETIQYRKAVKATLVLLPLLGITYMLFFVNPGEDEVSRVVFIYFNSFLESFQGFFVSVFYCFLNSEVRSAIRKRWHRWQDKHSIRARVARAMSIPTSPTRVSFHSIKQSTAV
The assay is described as follows: Competitive displacement of labeled PD-sauvagine, hCRFR1α in E. coli membranes. It is filed as binding. The conditions noted are these: E. coli membranes (Figure 14). How it is done: Each assay included at least triplicate wells for each concentration, and the assays were repeated at least twice (except where indicated).
(§1) The saturation and competitive binding experiments are analyzed by non-linear regression with the GraphPad Prism program (www.graphpad.com) assuming binding to a single site. Specifically, for saturation binding experiments, binding is determined as a function of increasing concentrations of radioligand. The equation used is y = {(Bmax)^.[radioligand]}/{Kd+[radioligand]}, where y = the specific binding (i.e., total binding-non-specific binding). Competitive binding experiments use a constant concentration of radioligand together with increasing concentrations of competitor. […] Because [radioligand] is <Kd, the Ki = EC50. For multiple determinations, Log (EC50) values were averaged to calculate the values in Table 1. […] In Table 1, the inhibition constant (Ki) values are shown together with the standard error and ranges, calculated assuming log normal distribution.

A further assay relates to CRFR1. Set-up: method as in PMID 9415408. Particulars: CRFR1 in mammalian cells; cited from earlier work.
Assay [2] has as its target T2, mCRFR2β (Mus musculus, UniProt Q60748).
T2 construct: mCRFR2β(Val25-C-term) - PhoA; made in house; host or cells: E. coli (membrane fraction)
The assay can be described thus: Competitive displacement of labeled astressin, mCRFR2β in E. coli membranes. It is filed as binding. Particulars: for Displacement of bound labeled astressin: mCRFR2β, E. coli membranes (Figure 11B). How it is done: as §1, with “The incubation was performed at room temp for 90-120 min, at which time the plates were aspirated and each well was washed with 2×100 μl assay buffer, dried and counted in a γ-counter. Each assay included at least triplicate wells for each concentration, and the assays were repeated at least twice (except where indicated). […] The saturation” for “The saturation”

Assay [3] deals with T1, hCRFR1α. The assay is described as follows: Binding of labeled sauvagine, hCRFR1α in E. coli. Particulars: hCRFR1α expressed in E. coli, [^125I-Tyr^0,Glu^1,Nle^17]-sauvagine. How it is done:
(§2) The incubation was performed at room temp for 90–120 min, at which time the plates were aspirated and each well was washed with 2×100 µl assay buffer, dried and counted in a γ-counter. Each assay included at least triplicate wells for each concentration, and the assays were repeated at least twice (except where indicated).

Assay [4] deals with T2, mCRFR2β. The assay can be described thus: Binding of labeled sauvagine, mCRFR2β in E. coli. Particulars: mCRFR2β expressed in E. coli, [^125I-Tyr^0,Glu^1,Nle^17]-sauvagine. The procedure:
as §2

Assay [5] addresses T1, hCRFR1α. The assay can be described thus: Saturation binding of labeled PD-sauvagine, hCRFR1α in E. coli membranes. The procedure:
as §1, with “The incubation was performed at room temp for 90-120 min, at which time the plates were aspirated and each well was washed with 2×100 μl assay buffer, dried and counted in a γ-counter. Each assay included at least triplicate wells for each concentration, and the assays were repeated at least twice (except where indicated). […] The saturation” for “The saturation”

The target in assay [6] is T2, mCRFR2β. The assay can be described thus: Saturation binding of labeled PD-sauvagine, mCRFR2β in E. coli membranes. How it is done:
as §1, with “The incubation was performed at room temp for 90-120 min, at which time the plates were aspirated and each well was washed with 2×100 μl assay buffer, dried and counted in a γ-counter. Each assay included at least triplicate wells for each concentration, and the assays were repeated at least twice (except where indicated). […] The saturation” for “The saturation”

Assay [7] concerns the target T1, hCRFR1α. The assay can be described thus: Binding of labeled Ucn1, hCRFR1α in E. coli. The conditions noted are these: data not shown.
The target of assay [8] is T2, mCRFR2β. The assay can be described thus: Binding of labeled Ucn1, mCRFR2β in E. coli. The conditions noted are these: data not shown.
Another assay has as its system CRFR1 / CRFR2. Particulars: introduction; cited from earlier work. The source says: In most vertebrates there are two highly conserved tissue-specifically expressed CRFRs, designated type 1 [15] and type 2 [16], encoded by different genes and approximately 70% identical to each other at the amino acid level. CRFR1 is relatively more abundant in the nervous system, including the pituitary, while CRFR2 is particularly expressed in the heart, skeletal muscle, and gastrointestinal tract. […] The main type 1 isoform in human, ra ...

The target of assay [9] is T1, hCRFR1α. The assay is described as follows: Competitive displacement of labeled astressin, hCRFR1α in E. coli membranes. It is filed as binding. Particulars: E. coli membranes (Figure 11A). How it is done: as §1, with “The incubation was performed at room temp for 90-120 min, at which time the plates were aspirated and each well was washed with 2×100 μl assay buffer, dried and counted in a γ-counter. Each assay included at least triplicate wells for each concentration, and the assays were repeated at least twice (except where indicated). […] The saturation” for “The saturation”

The next assay deals with ECD-1s of the CRFRs. Particulars: cited from earlier work. An excerpt: Further, the CRFRs' coupling to G-proteins in mammalian cells is important for the high affinity binding of agonists, such as sauvagine and CRF, ...
[10] abbreviates: listed as labeled agonist sauvagine.
Setting [11] is: labeled PD-sauvagine versus labeled astressin, printed with ref [55].
[12] abbreviates: nanomolar concentrations, Kd not determined (Figure S3).

“Also recorded” adds a separate entry of the source. Ends that are not written are not given here.

T2 sequence (Q60748 25-431 isoform Q60748-2): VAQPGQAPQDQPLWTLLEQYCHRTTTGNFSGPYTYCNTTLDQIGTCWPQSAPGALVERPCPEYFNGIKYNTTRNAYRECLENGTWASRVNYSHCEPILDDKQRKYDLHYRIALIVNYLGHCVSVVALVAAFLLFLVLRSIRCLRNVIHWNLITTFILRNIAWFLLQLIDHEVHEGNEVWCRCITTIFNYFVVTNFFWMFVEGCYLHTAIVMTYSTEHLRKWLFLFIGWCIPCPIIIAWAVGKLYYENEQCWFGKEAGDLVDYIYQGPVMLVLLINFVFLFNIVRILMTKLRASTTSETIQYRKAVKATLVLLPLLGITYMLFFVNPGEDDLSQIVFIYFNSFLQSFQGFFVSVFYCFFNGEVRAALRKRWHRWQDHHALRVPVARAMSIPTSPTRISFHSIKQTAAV

As to `CCCCN(CC)c1nc(C)nc2c1c(C)c(C)n2-c1c(C)cc(C)cc1C` [antalarmin], at hCRFR1α [1], the “Displacement of bound labeled PD-sauvagine” value is “displaces labeled PD-sauvagine bound to hCRFR1α (Figure 14) in a dose dependent manner; also recorded: competitively displaces labeled PD-sauvagine bound to a small percentage of the hCRFR1α expressed in E. coli membranes”. The “Binding site” value in the assay on CRFR1 is “binds to a site defined by residues in transmembrane domains 3 and 5 of CRFR1”.
As to `CC[C@H](C)[C@H](NC(=O)[C@H](CO)NC(=O)[C@H](CC(C)C)NC(=O)[C@@H]1CCCN1C(=O)[C@@H]1CCCN1C(=O)[C@H](CC(=O)O)NC(=O)[C@@H](N)CC(=O)O)C(=O)N[C@@H](CC(=O)O)C(=O)N[C@@H](CC(C)C)C(=O)N[C@H](C(=O)N[C@@H](Cc1ccccc1)C(=O)N[C@@H](Cc1c[nH]cn1)C(=O)N[C@@H](CC(C)C)C(=O)N[C@@H](CC(C)C)C(=O)N[C@@H](CCCNC(=N)N)C(=O)N[C@H](C(=O)N[C@@H](CC(C)C)C(=O)N[C@@H](CC(C)C)C(=O)N[C@@H](CCC(=O)O)C(=O)N[C@@H](CC(C)C)C(=O)N[C@@H](C)C(=O)N[C@@H](CCCNC(=N)N)C(=O)N[C@H](C(=O)N[C@@H](CCC(N)=O)C(=O)N[C@@H](CO)C(=O)N[C@@H](CCC(N)=O)C(=O)N[C@@H](CCCNC(=N)N)C(=O)N[C@@H](CCC(=O)O)C(=O)N[C@@H](CCCNC(=N)N)C(=O)N[C@@H](C)C(=O)N[C@@H](CCC(=O)O)C(=O)N[C@@H](CCC(N)=O)C(=O)N[C@@H](CC(N)=O)C(=O)N[C@@H](CCCNC(=N)N)C(=O)N[C@H](C(=O)N[C@H](C(=O)N[C@@H](Cc1ccccc1)C(=O)N[C@@H](CC(=O)O)C(=O)N[C@@H](CO)C(=O)N[C@H](C(N)=O)C(C)C)[C@@H](C)CC)[C@@H](C)CC)[C@@H](C)O)[C@@H](C)O)[C@@H](C)O` [rUcn1], the Ki (usually the equilibrium dissociation constant of an inhibitor or competing ligand from its target) at mCRFR2β [2] (read-out: Inhibitory binding constant (Ki)) was 11.5 nM.
Consider “[^125I-Tyr^0,Glu^1,Nle^17]-sauvagine [labeled sauvagine]”, for which the “Binding of labeled sauvagine” value is listed as “fail to bind labeled sauvagine” at hCRFR1α [3], “do not bind the labeled agonist sauvagine” at hCRFR1α [3] (setting [10]), “fail to bind labeled sauvagine” at mCRFR2β [4] and “do not bind the labeled agonist sauvagine” at mCRFR2β [4] (setting [10]).
Turning to “[^125I-Tyr^0,Glu^1]PD-sauvagine [labeled PD-sauvagine]”, the “Binding of labeled PD-sauvagine” value at hCRFR1α [5] is “do bind the other labeled agonist, PD-sauvagine”; at mCRFR2β [6], “do bind the other labeled agonist, PD-sauvagine”. Moreover, the “Number of sites detected” value at hCRFR1α [5] (setting [11]) and on mCRFR2β [6] (setting [11]) was “less than that detected by labeled astressin” each time. For the same compound, the “Saturation of binding” value at hCRFR1α [5] (setting [12]) and at mCRFR2β [6] (setting [12]) was “at nanomolar concentrations the binding did not saturate” in each case.
For “labeled Ucn1: labeled Ucn1, binding data not shown (DNPSLSIDLTFHLLRTLLELARTQSQRERAEQNRIIFDSV; ends and bridges not checked; also: labeled (label not given here); UniProt P55089 83-122, looked up)”, the “Binding of labeled Ucn1” value with hCRFR1α [7] and with mCRFR2β [8] was “observed binding of labeled Ucn1 to the receptors” each time.
Turning to “mUcn3: CRFR2-selective ligand, mouse (FTLSLDVPTNIMNILFNIDKAKNLRAKAAANAQLMAQI; ends and bridges not checked; UniProt Q924A4 123-160, looked up)”, in the assay with mCRFR2β [2], the “Displacement of bound labeled astressin” value was “does not compete for binding to mCRFR2β”. In the assay on CRFR1 / CRFR2, the “Relative affinity for CRFR1 and CRFR2” value is on record as “selective for CRFR2”.
On to “r/hCRF: CRF is a 41-amino acid (aa) peptide synthesized in the hypothalamus”, for which, in the assay with CRFR1 / CRFR2, the “Relative affinity for CRFR1 and CRFR2” value is reported as “tenfold higher affinity for CRFR1 than for CRFR2”.
As for sauvagine, the “Displacement of bound labeled astressin” value at hCRFR1α [9] and at mCRFR2β [2] was “does not displace labeled astressin bound to either receptor” in each case. Moreover, in the assay with ECD-1s of the CRFRs, the “Binding to ECD-1s” value is on record as “does not bind to the isolated ECD-1s”.
